Test results from patent US20260365677A1, “NEW CONTRAST AGENTS FOR USE IN DIAGNOSTIC IMAGING” (Bayer Aktiengesellschaft, priority 2022, published 2026).

How the values were obtained:
[1] = Relaxivity measurements at 1.41 T in water and human plasma; format: physicochemical; conditions: 37 °C, normalized to Gd
Protocol: Relaxivity measurements at 1.41 T were performed using a MiniSpec mq60 spectrometer (Bruker Analytik, Karlsruhe, Germany) operating at a resonance frequency of 60 MHz and a temperature of 37 °C. The T1 relaxation times were determined using the standard inversion recovery (IR) method with a fixed relaxation delay of at least 5×T1. The variable inversion time (TI) was calculated automatically by the standard software of the MiniSpec mq60 (8 steps). The T2 measurements were performed by using a Carr-Purcell-Meiboom-Gill (CPMG) pulse sequence, applying a relaxation delay of at least 5×T1.
Each relaxivity measurement was performed using three different Gd concentrations (3 concentrations between 0.05 and 2 mM). The T1 and T2 relaxation times of the example compounds 1 to 10 were measured in different media for example in water and human plasma. Human plasma preparation: For each experiment fresh blood was taken from a volunteer using 10 mL citrate-tubes (Sarstedt S-Monovette 02.1067.001, 10 mL, Citrate). The 10 mL citrate-tubes were carefully inverted 10 times to mix blood and anticoagulant and centrifuged for 15 min at 1811 g at RT (Eppendorf, Centrifuge 5810R).
The relaxivities ri (where i=1, 2) were calculated based on the measured relaxation rates R, in water and plasma:
where Ri(0) represent the relaxation rate of the respective solvent and CGd the concentration of the compound normalized to the Gadolinium. The Gadolinium concentrations of the investigated solutions were verified by Inductively Coupled Plasma Mass Spectrometry (ICP-MS Agilent 7500a, Waldbronn, Germany).

[2] = tested on: freshly isolated rat hepatocytes; assay: Uptake into freshly isolated rat hepatocytes; format: cell-based; conditions: 100 μmol Gd/L, 10 min, 37 °C, relative to RC1 (Gd-EOB-DTPA)
Protocol: Triplicates were performed for each test item.

OATP1B3 = biological target: T1, OATP1B3 (Homo sapiens, UniProt Q9NPD5); assay: Uptake into stable transfected OATP1B3 HEK 293 cells; format: cell-based; conditions: 100 μM, 40 min, relative to RC1 (Gd-EOB-DTPA)
T1 construct: expressed in transfected cells
T1 sequence (Q9NPD5 1-702): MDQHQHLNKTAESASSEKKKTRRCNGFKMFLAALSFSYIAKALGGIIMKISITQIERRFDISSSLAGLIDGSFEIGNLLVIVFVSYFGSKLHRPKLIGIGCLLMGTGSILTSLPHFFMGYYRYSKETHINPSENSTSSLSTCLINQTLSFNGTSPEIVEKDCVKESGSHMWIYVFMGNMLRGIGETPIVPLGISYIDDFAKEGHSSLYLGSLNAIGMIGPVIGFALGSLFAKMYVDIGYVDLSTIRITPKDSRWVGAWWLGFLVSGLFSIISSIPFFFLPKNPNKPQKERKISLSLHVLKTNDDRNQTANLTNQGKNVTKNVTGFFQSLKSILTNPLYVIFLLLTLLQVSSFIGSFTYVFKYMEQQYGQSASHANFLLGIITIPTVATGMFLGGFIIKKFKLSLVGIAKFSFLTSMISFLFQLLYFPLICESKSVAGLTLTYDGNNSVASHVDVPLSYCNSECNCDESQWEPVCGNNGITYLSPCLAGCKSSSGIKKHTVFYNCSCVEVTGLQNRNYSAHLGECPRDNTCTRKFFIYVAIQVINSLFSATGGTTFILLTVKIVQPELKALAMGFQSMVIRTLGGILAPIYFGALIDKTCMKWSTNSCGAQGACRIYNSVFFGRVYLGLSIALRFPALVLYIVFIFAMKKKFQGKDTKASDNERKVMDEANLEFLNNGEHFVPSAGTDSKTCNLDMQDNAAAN
Protocol: Human transfected OATP1B3 human embryonic kidney 293 cells (OATP1B3 HEK 293, SLCO1B3, Entrez Gene ID: 28234) were used (Leonhardt M et al. Drug Metab Dispos. 2010 July; 38(7):1024-8). The following culture medium was used: 500 mL DMEM (Dulbecco's Modified Eagle Medium—high Glucose, D6429), 50 mL FCS (fetal bovine serum, Fa. Sigma, F7524), 5.8 mL G418 (Geneticin, Fa. Gibco 10131-027) and 5 mL Pen-Strep. (Penicillin-Streptomycin, Fa. Gibco, Ref 15140-122). Cryopreserved cells were shortly thawed in water bath and diluted in 10 mL warm culture medium (37 °C). After medium change the cells were grown for 3d in a 25 cm^2 cell culture flask. After 3 to 5d the cells were transferred into 75 cm^2 flasks. For the splitting of cells these were incubated with 1.5 mL trypsin (Trypsin-EDTA (1×) 0.05%, Ref 25300-054 100 ml, Fa. Gibco) for 3-5 min in the incubator (37 °C, 5% CO2 and 95% oxygen). After centrifugation and washing with medium the cells were counted (50 μL cell suspension and 50 μL trypan blue (Trypan Blue Solution, 93595-50 ml, Fa. Fluka). Cells were cultured (1×10^5 cells/well) in poly-D-lysine coated 24-well plates (Fa. Corning, Ref: 354414) in 1.5 mL medium per well. After 48 hours in the incubator the medium was changed and 1.5 mL/well sodium butyrate containing medium were added (40 mL culture medium plus 400 μL Na-Butyrate, Fa. Sigma Aldrich B5887-5G, 250 mg in 2.27 mL MilliQ water). After 24 hours in the incubator the medium was vacuumed off and 1.5 mL transport buffer was added and incubated for 10 min. The transport buffer contains the following ingredients: 500 mL HBSS (Hank's balanced salt solution, Hyclone, SH30268.01), 5 mL HEPES buffer (4-(2-hydroxyethyl)-1-piperazine-ethanesulfonic acid, Gibco 15630-056) and 3.9 mL glucose (Sigma, G8270-100, 90 g/200 mL MilliQ water). All test items were prepared in transport buffer at a final concentration of 100 μM from stock solutions (180 to 500 mM concentration). The OATP1B3 HEK 293 cells were incubated with test solutions (test item in transport buffer 500 μL) for 40 min on a thermoshaker without shaking (PHMP, Fa. Grant Bio). Triplicates were performed for each test item. After incubation the cells were washed with 2 mL of cold PBS (+) buffer (Dulbeccos PBS+, Fa. Gibco). […] As a reference standard Gd-EOB-DTPA (gadoxetate) is used in the same well plate. The OATP1B3 HEK 293 uptake of the test compound is calculated relative to gadoxetate (resulting in the unit % of RC1).

[3] = Partition coefficient (log P butanol/buffer); format: physicochemical; conditions: 50 mM Tris-HCl, pH 7.4, 10 μM, room temperature
Protocol: The partition coefficient P (log P=log(Cbutanol/Cbuffer)) was determined in buffered aqueous solution (10 μM of compound in 0.5 mL 50 mM Tris-HCl saturated with Butanol, pH 7.4) and 1-butanol 1+1 and the mixture was shaken for 2 h at room temperature (n=3). The Gd-concentrations in each phase. CObutano, and Cbuffer were measured by ICP-MS (The Chemistry of Contrast Agents in Medical Magnetic Resonance Imaging” 2nd Ed. Merbach A S, Helm L, Toth E, eds. Hoboken, NJ: Wiley 2013).

Row | Structure (SMILES) | r1 human plasma [1] [L/mmol/s] | r1 water [1] [L/mmol/s] | Uptake rat hepatocytes [2] | Uptake into OATP1B3-HEK 293 cells (OATP1B3) | Log P [3]
1 | CCOc1ccc(CC2CN(CC(=O)[O-])CCN(CC(=O)[O-])CCN(CC(=O)O)CCN2CC(=O)[O-])cc1.[Gd+3] (single isomer, unassigned; diastereomer 1) [Example 8, Gadolinium-2,2′,2″-[10-(carboxymethyl)-2-(4-ethoxybenzyl)-1,4,7,10-tetraazacyclododecane-1,4,7-triyl]triacetate (racemic diastereomer 1)] | 6.5 | 4.7 | 143 % of RC1 | 94 % of RC1 | −1.33
2 | CCOCCOCCOCCOc1ccc(C[C@H]2CN(CC(=O)[O-])CCN(CC(=O)[O-])CCN(CC(=O)O)CCN2CC(=O)[O-])cc1.[Gd+3] [Example 5, Gadolinium-2,2′,2″-[(2S)-10-(carboxymethyl)-2-(4-{2-[2-(2-ethoxyethoxy)ethoxy]ethoxy}benzyl)-1,4,7,10-tetraazacyclododecane-1,4,7-triyl]triacetate] | 5.7 | 5.1 | 57 % of RC1 | 100 % of RC1 | −1.74
3 | CCOc1ccc(C[C@H]2CN(CC(=O)[O-])CCN(CC(=O)[O-])CCN(CC(=O)O)CCN2CC(=O)[O-])cc1.[Gd+3] (single isomer, unassigned; stereoisomer 2) [Example 11] | 6.2 | 4.4 | 49 % of RC1 | 32 % of RC1 | −1.37
